Patent publication US12258328B2, “6-membered heteroaryl-containing aminopyridine compounds as EGFR inhibitors” (YUHAN CORPORATION, priority 2021, dated 2025)
pIC50: −log10 of the molar value. Where two headings read alike, the source gives them in different places.

Tests used:
EGFR del19/T790M/C797S = EGFR del19/T790M/C797S (Homo sapiens, UniProt P00533, C797S/DEL746-750/T790M); test: Biochemical EGFR kinase assay (Lance Ultra TR-FRET), triple mutant del19/T790M/C797S
In short: (§1)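 Enzyme reactions lasted 1 hour at room temperature with test compounds between 0.003 and 10 μM, followed by 10 mM EDTA quench.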

EGFR wildtype = EGFR wildtype (Homo sapiens, UniProt P00533); test: Biochemical EGFR kinase assay (Lance Ultra TR-FRET), wildtype
EGFR wildtype, sequence (P00533 25-1210): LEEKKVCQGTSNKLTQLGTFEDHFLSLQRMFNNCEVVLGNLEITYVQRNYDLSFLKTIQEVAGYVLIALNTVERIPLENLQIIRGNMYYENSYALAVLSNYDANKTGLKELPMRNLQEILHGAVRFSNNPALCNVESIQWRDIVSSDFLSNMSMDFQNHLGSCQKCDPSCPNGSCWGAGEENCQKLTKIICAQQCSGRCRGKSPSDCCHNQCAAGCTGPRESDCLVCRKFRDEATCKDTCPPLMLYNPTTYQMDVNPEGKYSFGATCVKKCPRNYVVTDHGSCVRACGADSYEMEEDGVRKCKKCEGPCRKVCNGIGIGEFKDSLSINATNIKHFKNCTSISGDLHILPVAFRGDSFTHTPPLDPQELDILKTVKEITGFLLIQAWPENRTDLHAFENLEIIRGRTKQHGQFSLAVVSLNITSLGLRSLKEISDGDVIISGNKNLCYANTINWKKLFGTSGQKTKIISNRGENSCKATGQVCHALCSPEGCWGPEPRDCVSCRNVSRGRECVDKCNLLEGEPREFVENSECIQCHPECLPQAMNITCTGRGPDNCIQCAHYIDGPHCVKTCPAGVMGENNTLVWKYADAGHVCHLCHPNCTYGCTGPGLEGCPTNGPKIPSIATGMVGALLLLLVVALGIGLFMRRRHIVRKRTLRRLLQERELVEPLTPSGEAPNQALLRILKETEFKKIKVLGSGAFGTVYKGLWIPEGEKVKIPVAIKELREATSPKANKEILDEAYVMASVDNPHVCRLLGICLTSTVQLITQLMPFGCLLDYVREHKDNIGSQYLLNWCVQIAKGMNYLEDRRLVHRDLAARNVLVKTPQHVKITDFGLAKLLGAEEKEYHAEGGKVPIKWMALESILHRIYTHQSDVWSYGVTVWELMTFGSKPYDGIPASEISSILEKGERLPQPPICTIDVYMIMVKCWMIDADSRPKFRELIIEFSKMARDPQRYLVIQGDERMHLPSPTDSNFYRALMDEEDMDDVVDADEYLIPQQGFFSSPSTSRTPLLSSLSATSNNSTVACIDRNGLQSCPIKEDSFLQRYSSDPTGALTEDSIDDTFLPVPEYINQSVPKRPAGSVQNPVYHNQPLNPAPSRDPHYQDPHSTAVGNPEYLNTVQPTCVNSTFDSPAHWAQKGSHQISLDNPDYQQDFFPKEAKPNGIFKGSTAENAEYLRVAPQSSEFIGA
In short: as §1

EGFR del19/C797S = EGFR del19/C797S (Homo sapiens, UniProt P00533, C797S/DEL746-750); test: Biochemical EGFR kinase assay (Lance Ultra TR-FRET), double mutant del19/C797S
In short: as §1

EGFR L858R/T790M/C797S = EGFR L858R/T790M/C797S (Homo sapiens, UniProt P00533, C797S/L858R/T790M); test: Biochemical EGFR kinase assay (Lance Ultra TR-FRET), triple mutant L858R/T790M/C797S
EGFR L858R/T790M/C797S, sequence (P00533 25-1210 T790M/C797S/L858R): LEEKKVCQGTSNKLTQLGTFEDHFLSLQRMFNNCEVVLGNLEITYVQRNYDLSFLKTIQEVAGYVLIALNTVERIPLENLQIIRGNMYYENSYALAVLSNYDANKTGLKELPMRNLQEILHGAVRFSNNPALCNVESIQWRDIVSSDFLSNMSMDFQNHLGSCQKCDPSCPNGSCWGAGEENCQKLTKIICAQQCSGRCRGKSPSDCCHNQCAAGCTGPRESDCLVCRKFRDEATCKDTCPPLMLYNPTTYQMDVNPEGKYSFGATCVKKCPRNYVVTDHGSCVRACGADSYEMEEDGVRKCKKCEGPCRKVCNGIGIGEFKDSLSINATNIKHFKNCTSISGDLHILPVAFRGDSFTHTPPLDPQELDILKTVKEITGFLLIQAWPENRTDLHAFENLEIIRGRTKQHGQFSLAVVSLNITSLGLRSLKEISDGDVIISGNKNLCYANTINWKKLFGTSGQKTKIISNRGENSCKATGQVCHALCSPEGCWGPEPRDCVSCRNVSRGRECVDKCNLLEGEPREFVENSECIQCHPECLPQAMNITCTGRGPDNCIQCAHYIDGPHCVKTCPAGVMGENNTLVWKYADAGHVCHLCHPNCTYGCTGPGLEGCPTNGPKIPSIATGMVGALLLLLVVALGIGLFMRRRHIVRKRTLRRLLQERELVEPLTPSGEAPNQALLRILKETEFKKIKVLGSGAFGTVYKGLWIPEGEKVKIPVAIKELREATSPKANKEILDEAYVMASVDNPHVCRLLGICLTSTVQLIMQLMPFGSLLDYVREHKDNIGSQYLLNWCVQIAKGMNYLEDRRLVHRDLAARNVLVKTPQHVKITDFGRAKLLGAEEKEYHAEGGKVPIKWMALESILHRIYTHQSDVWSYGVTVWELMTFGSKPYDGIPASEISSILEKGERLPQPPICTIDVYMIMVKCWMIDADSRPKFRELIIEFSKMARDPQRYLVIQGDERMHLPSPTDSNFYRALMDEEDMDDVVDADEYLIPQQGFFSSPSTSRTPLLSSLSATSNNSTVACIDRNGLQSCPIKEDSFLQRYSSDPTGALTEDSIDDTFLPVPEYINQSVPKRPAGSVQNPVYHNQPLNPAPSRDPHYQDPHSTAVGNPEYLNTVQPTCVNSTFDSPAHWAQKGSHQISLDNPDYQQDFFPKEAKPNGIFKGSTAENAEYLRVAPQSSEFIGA
In short: as §1

EGFR L858R/C797S = EGFR L858R/C797S (Homo sapiens, UniProt P00533, C797S/L858R); test: Biochemical EGFR kinase assay (Lance Ultra TR-FRET), double mutant L858R/C797S
EGFR L858R/C797S, sequence (P00533 25-1210 C797S/L858R): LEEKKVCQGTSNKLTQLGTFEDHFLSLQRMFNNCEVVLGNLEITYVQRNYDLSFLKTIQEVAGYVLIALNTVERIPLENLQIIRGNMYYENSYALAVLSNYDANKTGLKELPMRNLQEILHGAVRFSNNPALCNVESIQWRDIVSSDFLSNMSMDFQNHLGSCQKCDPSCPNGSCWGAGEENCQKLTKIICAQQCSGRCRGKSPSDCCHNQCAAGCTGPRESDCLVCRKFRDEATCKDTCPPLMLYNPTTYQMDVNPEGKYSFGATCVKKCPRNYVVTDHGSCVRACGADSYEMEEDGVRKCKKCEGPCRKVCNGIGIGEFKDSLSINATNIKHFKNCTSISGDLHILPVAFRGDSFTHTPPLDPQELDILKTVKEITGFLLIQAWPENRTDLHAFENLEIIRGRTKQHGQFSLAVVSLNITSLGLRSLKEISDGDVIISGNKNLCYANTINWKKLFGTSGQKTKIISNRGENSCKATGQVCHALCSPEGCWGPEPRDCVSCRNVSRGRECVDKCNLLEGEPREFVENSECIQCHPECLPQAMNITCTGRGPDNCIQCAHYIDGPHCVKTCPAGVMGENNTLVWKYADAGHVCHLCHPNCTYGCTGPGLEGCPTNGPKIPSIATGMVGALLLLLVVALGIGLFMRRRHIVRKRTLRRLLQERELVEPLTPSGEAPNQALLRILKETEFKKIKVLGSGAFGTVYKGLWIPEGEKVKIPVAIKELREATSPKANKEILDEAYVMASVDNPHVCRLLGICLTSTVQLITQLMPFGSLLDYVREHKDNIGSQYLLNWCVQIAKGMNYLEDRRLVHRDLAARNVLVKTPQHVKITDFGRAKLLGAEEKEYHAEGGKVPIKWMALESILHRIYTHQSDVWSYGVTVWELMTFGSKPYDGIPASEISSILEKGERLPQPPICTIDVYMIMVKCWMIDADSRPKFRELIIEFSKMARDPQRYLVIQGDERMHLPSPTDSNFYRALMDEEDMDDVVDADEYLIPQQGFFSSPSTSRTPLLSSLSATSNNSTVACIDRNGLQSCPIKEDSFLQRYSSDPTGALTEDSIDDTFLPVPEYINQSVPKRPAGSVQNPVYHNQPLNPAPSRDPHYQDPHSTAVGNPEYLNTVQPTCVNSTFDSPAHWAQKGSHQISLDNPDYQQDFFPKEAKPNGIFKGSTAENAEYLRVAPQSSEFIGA
In short: as §1

[1] = ATP at Km, read-out: IC50 del19/T790M/C797S, Km ATP
[2] = IC50 del19/T790M/C797S, 100 μM ATP
[3] = ATP at Km, read-out: IC50 WT, Km ATP
[4] = ATP at Km, read-out: IC50 del19/C797S, Km ATP
[5] = ATP at Km, read-out: IC50 L858R/T790M/C797S, Km ATP
[6] = IC50 L858R/T790M/C797S, 100 μM ATP
[7] = ATP at Km, read-out: IC50 L858R/C797S, Km ATP

EGFR del19/T790M/C797S, sequence (P00533 with tags, fused parts or gaps DEL746-750/T790M/C797S): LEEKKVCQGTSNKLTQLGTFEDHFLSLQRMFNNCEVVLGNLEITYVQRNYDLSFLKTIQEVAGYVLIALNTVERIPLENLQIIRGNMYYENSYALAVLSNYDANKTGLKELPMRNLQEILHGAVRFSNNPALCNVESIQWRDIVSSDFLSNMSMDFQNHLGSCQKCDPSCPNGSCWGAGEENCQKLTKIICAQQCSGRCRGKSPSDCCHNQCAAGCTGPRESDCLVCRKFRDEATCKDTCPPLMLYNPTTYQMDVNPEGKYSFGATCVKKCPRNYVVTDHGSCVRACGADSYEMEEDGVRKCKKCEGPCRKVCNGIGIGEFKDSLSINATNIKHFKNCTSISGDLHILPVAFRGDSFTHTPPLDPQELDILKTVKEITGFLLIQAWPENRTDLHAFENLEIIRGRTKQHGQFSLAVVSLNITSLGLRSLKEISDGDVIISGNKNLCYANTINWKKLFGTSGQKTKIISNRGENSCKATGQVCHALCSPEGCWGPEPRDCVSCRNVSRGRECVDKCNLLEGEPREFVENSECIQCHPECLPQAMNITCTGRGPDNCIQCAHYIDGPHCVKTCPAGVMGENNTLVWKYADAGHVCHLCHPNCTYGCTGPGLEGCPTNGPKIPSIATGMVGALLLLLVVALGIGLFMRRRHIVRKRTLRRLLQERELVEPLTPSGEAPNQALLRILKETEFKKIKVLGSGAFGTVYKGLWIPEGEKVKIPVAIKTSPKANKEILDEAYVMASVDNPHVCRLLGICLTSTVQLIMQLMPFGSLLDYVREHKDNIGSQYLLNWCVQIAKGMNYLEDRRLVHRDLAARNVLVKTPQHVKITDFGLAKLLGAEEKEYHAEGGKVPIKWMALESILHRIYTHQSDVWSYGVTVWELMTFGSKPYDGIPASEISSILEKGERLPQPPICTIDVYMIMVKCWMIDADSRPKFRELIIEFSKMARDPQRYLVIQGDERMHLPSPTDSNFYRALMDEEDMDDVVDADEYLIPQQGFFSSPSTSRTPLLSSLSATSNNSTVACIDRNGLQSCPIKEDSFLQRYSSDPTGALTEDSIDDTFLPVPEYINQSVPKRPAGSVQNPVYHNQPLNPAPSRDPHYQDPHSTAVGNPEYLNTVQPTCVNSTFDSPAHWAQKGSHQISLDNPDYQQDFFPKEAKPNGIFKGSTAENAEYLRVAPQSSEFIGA

Compound | pIC50 (EGFR del19/T790M/C797S; [1]) | pIC50 (EGFR del19/T790M/C797S; [2]) | pIC50 (EGFR wildtype; [3]) | pIC50 (EGFR wildtype; IC50 WT, 100 μM ATP) | pIC50 (EGFR del19/C797S; [4]) | pIC50 (EGFR del19/C797S; IC50 del19/C797S, 100 μM ATP) | pIC50 (EGFR L858R/T790M/C797S; [5]) | pIC50 (EGFR L858R/T790M/C797S; [6]) | pIC50 (EGFR L858R/C797S; [7]) | pIC50 (EGFR L858R/C797S; IC50 L858R/C797S, 100 μM ATP)
CN(C)CC1CCC(Nc2cc(Nc3ccnc(-c4cnn(S(=O)(=O)C5CC5)c4)n3)ncc2-c2ccc(C(C)(O)C(F)(F)F)cn2)CC1 (stereo not drawn) [Example 234, 2-(6′-((2-(1-(Cyclopropylsulfonyl)-1H-pyrazol-4-yl)pyrimidin-4-yl)amino)-4′-(((1s,4s)-4-((dimethylamino)methyl)cyclohexyl)amino)-[2,3′-bipyridin]-5-yl)-1,1,1-trifluoropropan-2-ol] | 9.30 | 9.52 | 9.15 | 6.91 | 9.70 | 9.30 | 9.70 | 9.70 | 9.52 | 9.15
CC(C)(F)c1ccc(-c2cnc(Nc3ccnc(-c4cnn(S(=O)(=O)C5CC5)c4)n3)cc2N[C@H]2CC[C@@H](CO)CC2)nc1 [Example 235, ((1s,4s)-4-((6′-((2-(1-(Cyclopropylsulfonyl)-1H-pyrazol-4-yl)pyrimidin-4-yl)amino)-5-(2-fluoropropan-2-yl)-[2,3′-bipyridin]-4′-yl)amino)cyclohexyl)methanol] | 9.00 | – | 8.31 | 6.16 | 8.51 | – | 9.10 | 8.57 | 9.00 | 8.09
CC(C)(F)c1ccc(-c2cnc(Nc3ccnc(-c4cnn(S(=O)(=O)C5CC5)c4)n3)cc2N[C@H]2CC[C@@H](C(C)(C)O)CC2)nc1 [Example 236, 2-((1s,4s)-4-((6′-((2-(1-(Cyclopropylsulfonyl)-1H-pyrazol-4-yl)pyrimidin-4-yl)amino)-5-(2-fluoropropan-2-yl)-[2,3′-bipyridin]-4′-yl)amino)cyclohexyl)propan-2-ol] | 8.60 | 8.04 | 7.38 | < 5.00 | 8.04 | 7.61 | 8.72 | 8.19 | 8.52 | 6.75
CC(C)(F)c1ccc(-c2cnc(Nc3ccnc(-c4cnn(S(=O)(=O)C5CC5)c4)n3)cc2N[C@H]2CC[C@@H](F)CC2)nc1 [Example 238, N^6′-(2-(1-(Cyclopropylsulfonyl)-1H-pyrazol-4-yl)pyrimidin-4-yl)-N^4′-((1s,4s)-4-fluorocyclohexyl)-5-(2-fluoropropan-2-yl)-[2,3′-bipyridine]-4′,6′-diamine] | 7.55 | – | 6.50 | – | 7.02 | – | 8.04 | – | 7.73 | –
CC(C)(F)c1ccc(-c2cnc(Nc3ccnc(-c4cnn(S(=O)(=O)C5CC5)c4)n3)cc2NC2CCC(F)CC2)nc1 (stereo not drawn) [Example 239, N^6′-(2-(1-(Cyclopropylsulfonyl)-1H-pyrazol-4-yl)pyrimidin-4-yl)-N^4′-(4-fluorocyclohexyl)-5-(2-fluoropropan-2-yl)-[2,3′-bipyridine]-4′,6′-diamine] | 7.82 | – | 6.67 | – | 7.14 | – | 8.41 | – | 7.50 | –
CC(C)(F)c1ccc(-c2cnc(Nc3ccnc(-c4cnn(S(=O)(=O)C5CC5)c4)n3)cc2NC2CCC(F)(F)CC2)nc1 [Example 240, N^6′-(2-(1-(Cyclopropylsulfonyl)-1H-pyrazol-4-yl)pyrimidin-4-yl)-N^4′-(4,4-difluorocyclohexyl)-5-(2-fluoropropan-2-yl)-[2,3′-bipyridine]-4′,6′-diamine] | 7.70 | – | 6.13 | – | 6.87 | – | 8.23 | – | 7.81 | –
CC(F)(F)c1ccc(-c2cnc(Nc3ccnc(-c4cnn(S(=O)(=O)C5CC5)c4)n3)cc2N[C@H]2CC[C@@H](CO)CC2)nc1 [Example 241, ((1s,4s)-4-((6′-((2-(1-(Cyclopropylsulfonyl)-1H-pyrazol-4-yl)pyrimidin-4-yl)amino)-5-(1,1-difluoroethyl)-[2,3′-bipyridin]-4′-yl)amino)cyclohexyl)methanol] | 8.64 | 8.36 | 7.69 | 5.58 | 8.20 | 7.89 | 8.74 | 8.16 | 8.54 | 7.66
CC(F)(F)c1ccc(-c2cnc(Nc3ccnc(-c4cnn(S(=O)(=O)C5CC5)c4)n3)cc2N[C@H]2CC[C@@H](C(C)(C)O)CC2)nc1 [Example 242, 2-((1s,4s)-4-((6′-((2-(1-(Cyclopropylsulfonyl)-1H-pyrazol-4-yl)pyrimidin-4-yl)amino)-5-(1,1-difluoroethyl)-[2,3′-bipyridin]-4′-yl)amino)cyclohexyl)propan-2-ol] | 8.32 | 8.01 | 7.27 | < 5.00 | 7.82 | 7.73 | 8.60 | 7.95 | 7.97 | 6.75
O=S(=O)(C1CC1)n1cc(-c2nccc(Nc3cc(N[C@H]4CC[C@@H](CO)CC4)c(-c4ccc(C(F)(F)CO)cn4)cn3)n2)cn1 [Example 244, 2-(6′-((2-(1-(Cyclopropylsulfonyl)-1H-pyrazol-4-yl)pyrimidin-4-yl)amino)-4′-(((1s,4s)-4-(hydroxymethyl)cyclohexyl)amino)-[2,3′-bipyridin]-5-yl)-2,2-difluoroethan-1-ol] | 9.05 | 8.77 | 8.74 | 5.85 | 9.22 | 9.05 | 9.70 | 9.52 | 9.40 | 9.05
O=S(=O)(C1CC1)n1cc(-c2nccc(Nc3cc(N[C@H]4CC[C@@H](CO)CC4)c(-c4cccc(CC(F)(F)F)n4)cn3)n2)cn1 [Example 246, ((1s,4s)-4-((6′-((2-(1-(Cyclopropylsulfonyl)-1H-pyrazol-4-yl)pyrimidin-4-yl)amino)-6-(2,2,2-trifluoroethyl)-[2,3′-bipyridin]-4′-yl)amino)cyclohexyl)methanol] | 8.52 | 8.14 | 7.38 | < 5.00 | 8.16 | 7.68 | 9.40 | 8.96 | 7.91 | 7.34

The remaining lines, values ahead:

pIC50 (EGFR del19/T790M/C797S; [1]) | pIC50 (EGFR del19/T790M/C797S; [2]) | pIC50 (EGFR wildtype; [3]) | pIC50 (EGFR wildtype; IC50 WT, 100 μM ATP) | pIC50 (EGFR del19/C797S; [4]) | pIC50 (EGFR del19/C797S; IC50 del19/C797S, 100 μM ATP) | pIC50 (EGFR L858R/T790M/C797S; [5]) | pIC50 (EGFR L858R/T790M/C797S; [6]) | pIC50 (EGFR L858R/C797S; [7]) | pIC50 (EGFR L858R/C797S; IC50 L858R/C797S, 100 μM ATP) | Compound
– | 7.83 | 6.96 | < 5.00 | – | 7.09 | – | 8.59 | – | 7.29 | CC(C)(O)[C@H]1CC[C@@H](Nc2cc(Nc3ccnc(-c4cnn(S(=O)(=O)C5CC5)c4)n3)ncc2-c2cccc(CC(F)(F)F)n2)CC1 [Example 247, 2-((1s,4s)-4-((6′-((2-(1-(Cyclopropylsulfonyl)-1H-pyrazol-4-yl)pyrimidin-4-yl)amino)-6-(2,2,2-trifluoroethyl)-[2,3′-bipyridin]-4′-yl)amino)cyclohexyl)propan-2-ol]
9.40 | 9.40 | 8.34 | 5.12 | 8.70 | 8.30 | 10.00 | 9.52 | 8.74 | 8.01 | CN(C)C[C@H]1CC[C@@H](Nc2cc(Nc3ccnc(-c4cnn(S(=O)(=O)C5CC5)c4)n3)ncc2-c2cccc(CC(F)(F)F)n2)CC1 [Example 248, N^6′-(2-(1-(Cyclopropylsulfonyl)-1H-pyrazol-4-yl)pyrimidin-4-yl)-N^4′-((1s,4s)-4-((dimethylamino)methyl)cyclohexyl)-6-(2,2,2-trifluoroethyl)-[2,3′-bipyridine]-4′,6′-diamine]
9.30 | – | 8.55 | – | 9.40 | – | 9.70 | – | 9.70 | – | CC(C)Nc1cc(Nc2ccnc(-c3cnn(S(=O)(=O)C4CC4)c3)n2)ncc1-c1ccc(OC2CCN(C)CC2)cn1 [Example 249, N^6′-(2-(1-(Cyclopropylsulfonyl)-1H-pyrazol-4-yl)pyrimidin-4-yl)-N^4′-isopropyl-5-((1-methylpiperidin-4-yl)oxy)-[2,3′-bipyridine]-4′,6′-diamine]
9.40 | – | 9.52 | – | 9.40 | – | 9.70 | – | 9.40 | – | CN1CCC(Oc2ccc(-c3cnc(Nc4ccnc(-c5cnn(S(=O)(=O)C6CC6)c5)n4)cc3N[C@H]3CC[C@@](C)(O)CC3)nc2)CC1 [Example 250, (1s,4s)-4-((6′-((2-(1-(Cyclopropylsulfonyl)-1H-pyrazol-4-yl)pyrimidin-4-yl)amino)-5-((1-methylpiperidin-4-yl)oxy)-[2,3′-bipyridin]-4′-yl)amino)-1-methylcyclohexan-1-ol]
9.30 | – | 9.70 | – | 9.70 | – | 10.00 | – | 9.52 | – | CN1CCC(Oc2ccc(-c3cnc(Nc4ccnc(-c5cnn(S(=O)(=O)C6CC6)c5)n4)cc3N[C@H]3CC[C@@H](CO)CC3)nc2)CC1 [Example 251, ((1s,4s)-4-((6′-((2-(1-(Cyclopropylsulfonyl)-1H-pyrazol-4-yl)pyrimidin-4-yl)amino)-5-((1-methylpiperidin-4-yl)oxy)-[2,3′-bipyridin]-4′-yl)amino)cyclohexyl)methanol]
